Source: US8221993B2, “Methods of detecting methyl transferase activity and methods of screening for methyl transferase activity modulators” (Onco Therapy Science, Inc., priority 2004, dated 2012)

Assays:
Format in all cases: biochemical
ZNFN3A1 [1] = target: T1, ZNFN3A1 (Homo sapiens, UniProt Q9H7B4, K13N); assay: In vitro histone H3-K4 methyltransferase assay, peptide competition; parameters: made in house; host or cells: transfected mammalian cells (293T), anti-Flag immunoprecipitate; details: recombinant histone H3, SAM and HSP90A, addition of competitor peptide, FIG. 2b
T1 sequence (Q9H7B4 1-428 K13N): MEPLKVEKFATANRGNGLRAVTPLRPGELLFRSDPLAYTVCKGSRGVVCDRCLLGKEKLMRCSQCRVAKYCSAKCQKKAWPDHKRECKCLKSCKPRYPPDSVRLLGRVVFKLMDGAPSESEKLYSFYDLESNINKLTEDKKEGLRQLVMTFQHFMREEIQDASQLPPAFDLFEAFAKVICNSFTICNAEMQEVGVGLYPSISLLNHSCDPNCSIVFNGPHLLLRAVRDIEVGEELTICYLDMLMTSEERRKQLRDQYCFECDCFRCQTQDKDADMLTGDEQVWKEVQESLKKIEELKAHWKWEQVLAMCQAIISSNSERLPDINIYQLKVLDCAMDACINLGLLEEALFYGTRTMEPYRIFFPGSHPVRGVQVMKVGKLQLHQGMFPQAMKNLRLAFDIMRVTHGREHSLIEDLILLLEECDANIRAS
Procedure: H3-K4 specific methyltransferase activity was examined by western blot analysis of recombinant Xenopus H3 protein (UBI) incubated with the immunoprecipitants in the presence of 20 μM unlabeled S-adenosyl-L-methionine (SAM) and 2 μg of HSP90A for 1 hr at 30° C., using antibodies against mono-methylated (Abcam; ab8895), di-methylated (Abcam; ab7766), tri-methylated (Abcam; ab8580) H3-K4, total H3 (Abcam; ab1791), or tri-methylated H3-K9 (UBI; 07523). Lysates of cells transfected with plasmid expressing Flag-tagged wild-type ZNFN3A1, mutant ZNFN3A1, SET7/9, SUV39H1, or mock were immunoprecipitated with anti-Flag antibody (Sigma). Peptides to di-methylated H3-K4 (Abcam; ab7768, ARTK-Me2-QTAR-GGC) and di-methylated H3-K9 (Abcam; ab1772, QTARK-Me2-ST-GGC) were used for competition assay. Recombinant ZNFN3A1 was expressed in E. coli bacteria with plasmids expressing GST-fused ZNFN3A1 or in Sf9 cells with plasmids expressing HA-tagged ZNFN3A1. H3-methyltransferase activity was also analyzed in the presence or absence of 0.04 U SAHH (Sigma) using immunoprecipitated ZNFN3A1 protein or recombinant ZNFN3A1 purified from Sf9 cells.
Since proteins containing SET domain play a crucial role in methylation of histone H3 lysine 4 (H3-K4) or lysine 9 (H3-K9), we investigated whether ZNFN3A1 has an ability to methylate H3-K4 or H3-K9. […]

ZNFN3A1 [2] = target: T1, ZNFN3A1; assay: In vitro histone H3 methyltransferase activity in the presence or absence of SAHH; parameters: made in house; host or cells: 293T cells transfected with pFLAG-CMV-ZNFN3A1, anti-Flag immunoprecipitate; details: presence versus absence of SAHH, FIG. 3d
Procedure: (§1) 293T cells were transfected with plasmid expressing Flag-tagged ZNFN3A1 (pFLAG-CMV-ZNFN3A1), SET7 protein or mock, and purified tagged proteins by immunoprecipitation with anti-Flag antibody. In vitro HMTase assay was performed according to the protocol (1) with a slight modification. Briefly, immunoprecipitated protein was incubated with 25 μg of free histones (mixture of H3, H2B, H2A and H4; Roche) as substrates and 2.5 μCi S-adenosyl-L-[methyl-^3H] methionine as methyl donor in a mixture of 40 μl of methylase activity buffer (50 mM Tris-HCl pH 8.5, 20 mM KCl, 10 mM MgCl2, 10 mM β-mercaptoethanol, 250 mM sucrose), for 60 min at 37° C. […]
H3-K4 specific methyltransferase activity was examined by western blot analysis of recombinant Xenopus H3 protein (UBI) incubated with the immunoprecipitants in the presence of 20 μM unlabeled S-adenosyl-L-methionine (SAM) and 2 μg of HSP90A for 1 hr at 30° C., using antibodies against mono-methylated (Abcam; ab8895), di-methylated (Abcam; ab7766), tri-methylated (Abcam; ab8580) H3-K4, total H3 (Abcam; ab1791), or tri-methylated H3-K9 (UBI; 07523). […] H3-methyltransferase activity was also analyzed in the presence or absence of 0.04 U SAHH (Sigma) using immunoprecipitated ZNFN3A1 protein or recombinant ZNFN3A1 purified from Sf9 cells. […]

ZNFN3A1 [3] = target: T1, ZNFN3A1; assay: In vitro HMTase assay of SET domain of ZNFN3A1 with/without recombinant HSP90A; parameters: made in house; host or cells: transfected mammalian cells (293T), anti-Flag immunoprecipitate; details: wild-type SET of ZNFN3A1, SAM and histones, with recombinant HSP90A, FIG. 1c lane 4 and 5
Procedure: as §1
Proteins containing the wild-type SET domain of ZNFN3A1 and two forms of mutant protein that lacked one of the two regions were prepared, and cross-linked equal amount of each protein with [^3H]-labeled SAM by exposure to UV-radiation. […] The wild-type SET or control recombinant protein of SET7 was further incubated with [^3H]-labeled SAM and a mixture of histones as substrates, and labeled protein after the separation on SDS-PAGE was measured. As expected, a strong band corresponding to [^3H]-labeled histone H3 protein by the control SET7 (FIG. 1c, lane 3) was detected. When substrates were incubated with the wild-type SET of ZNFN3A1, a faint band corresponding to labeled histone H3 was detected, which was not observed with mock (FIG. 1c, lane 1 and 2). […]

With “QTARK-Me2-ST-GGC [di-methylated H3-K9 peptides]” the “di- and tri-methylation of H3-K4 by wild-type ZNFN3A1” value (ZNFN3A1 [1]) was “unaffected”.
For “ARTK-Me2-QTAR-GGC [di-methylated H3-K4 peptides]”, the “di- and tri-methylation of H3-K4 by wild-type ZNFN3A1” value (ZNFN3A1 [1]) was “completely inhibited”.
In the case of “S-adenosyl homocysteine hydrolase [SAHH]”, the “H3 methyltransferase activity of Flag-tagged ZNFN3A1” value (ZNFN3A1 [2]) was “significantly higher”.
For “HSP90A: recombinant 90-kD heat shock protein, interacting protein of ZNFN3A1”, the “methyl transferase activity onto histone H3” value (ZNFN3A1 [3]) was “enhanced methyl transferase activity”.
